Laboratory results as given in PMC10871713 (Materials today. Nano, 2023).
Positions of bridges follow the written chain, without caps; N, C: chain ends. No end group written: not given here.

Key:
[1] = test system: adipose-derived stem cells (ADSCs); test: ADSC attachment and spreading on protein crystals; type: cell-based, human; settings: protein crystal surface passivated by covalent attachment of PEG; data not shown
CJ^OPT protein crystal = test system: CJ^OPT protein crystal; design: species or system Campylobacter jejuni
[2] = cyclic peptide; cited from earlier work
streptavidin = settings: AFM; streptavidin/biotin partners (Beebe et al.) ref 40, 41; cited from earlier work

With poly(ethylene glycol) [PEG] the “cell adhesion” value [1] was “no cell adhesion” and the “adsorption of PEG from solution by crystals” value (CJ^OPT protein crystal) was “adsorbed by the crystals from solution within minutes”.
For “CWDDGWLC (disulfide 1-8 (inferred)) [IntP]”, the “binding to RGD” value [2] is listed as “binds RGD”.
For `O=C(O)CCCC[C@@H]1SC[C@@H]2NC(=O)N[C@@H]21` [biotin], the ligand-receptor bond-rupture force (streptavidin) is given as 442 ± 17 pN.
